According to patent US11458189B2, “Cytoprotective drugs” (BALMES TRANSPLANTATION, priority 2017, dated 2022):
Starred links: 1 amine or outer side, 2 acyl side, 3 side chain; linkers in the order of their positions; H or OH if unused. Positions of bridges follow the written chain, without caps; N, C: chain ends. Non-standard residues stand in square brackets, D forms with d. Residues, ends and D or L forms follow the SMILES beside them. *: point of attachment. hTyr(3S-OH,4S-OH,3'-OSO3H) = N[C@H](C(=O)O)[C@H](O)[C@@H](O)c1ccc(O)c(OS(=O)(=O)O)c1; Orn(4R-OH,5R-OH) = O=C([C@H](C[C@@H](O)[C@@H](O)N[*:3])N[*:1])[*:2]; Pro(3S-OH,4S-Me) = C[C@H]1CN[C@H](C(=O)O)[C@H]1O; X1 = CCCCCOc1ccc(-c2cc(-c3ccc(C(=O)*)cc3)no2)cc1; Gln(3R-OH) = NC(=O)C[C@@H](O)[C@H](N)C(=O)O; Hyp = O=C(O)[C@@H]1C[C@@H](O)CN1

Test system: Rat Primary Kidney Glomerular Endothelial cells
Assay: Oxygen and glucose deprivation followed by replenishment, cell survival (calcein AM), rat glomerular endothelial cells;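 on Survival rate (%): 100% is hypoxia control with glucose and 0% is untreated OGD control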
Format: cell-based
Protocol: Anidulafungin and micafungin were tested on Human Renal Glomerular Endothelial Cells (HRGEC, Innoprot P10665), on Human Renal Proximal Tubular Epithelial Cells (HRPTEpiC, Innoprot P10662), on Human Astrocytes (HA, caltag SC-1800), on Human Cardiac Microvascular Endothelial Cells (HCMEC, Caltag SC-6000), on Human Hepatic Sinusoidal Endothelial Cells (HHSEC, Caltag SC-5000), on Rat Primary Kidney Glomerular Endothelial cells (Cellbiologics, RN-6014G) and on Bovine Brain Microvascular Endothelial Cells (BBMEC, Caltag SC-B100).
In a first phase, these isolated, purified and cryopreserved cells are thawed and multiplied according to the supplier's recommendations in T75 or T175 flasks pre-coated with 2 μg of fibronectin/[…] (CORNING) for HRGEC, HCMEC, HHSEC and BBMEC, or 2 μg poly-L-lysin/cm^2 (Caltag SC-0403) for HRPTEpiC and HA, or 15 mL/flask 175 cm^2 gelatin-based solution (Cellbiologics) in the presence of endothelial cell supplemented growth medium ECM (P60104, INNOPROT, Caltag, SC-1001) for HRGEC, HCMEC, HHSEC, RPKGEC or BBMEC, or astrocyte cell supplemented growth medium AM (Caltag SC-1801) for HA or epithelial cell supplemented growth medium EpiCM (P60106, INNOPROT) for HRPTEpiC, at 37° C. under 5% CO2 and saturated humidity until their confluency. They are then harvested by trypsinization according to the method described by the supplier for exactly 5 minutes and then reseeded in new flasks a maximum of three times.
To carry out the oxygen and glucose deprivation test followed by their replenishment, the cells will be seeded in 96-well black plates with transparent flat bottom (GREINER). Once a sufficient number of cells has been obtained to allow seeding of 2000 to 15000 cells per well of 96-well plates depending on the cell type, the cells are seeded in these 96-well plates previously coated with an extracellular matrix as listed above for the flasks. The cells are cultured for 5 to 8 days according to the cell type, in the presence of the same growth medium as in the flask as described above except for HRGEC and HRPTEpiC for which DMEM (DUTSCHER) with 1 g/L of supplemented glucose is used, at 37° C. under 5% CO2 and saturated humidity to obtain confluency.
On the first day of oxygen and glucose deprivation, (5th, 6th, 7th or 8th day of culture), the culture conditions are drastically changed. The medium of all plates is removed and replaced by DMEM (DUTSCHER) medium without glucose and supplemented only with 1% penicillin-streptomycin (DUTSCHER). Anidulafungin or micafungin dissolved in dimethyl sulfoxide (DMSO) is then added to each well at the desired concentration, resulting in a maximum of 1% DMSO, and the plates are placed under hypoxia at <1% 02 and 5% CO2 at 37° C. for 24 hours of culture. Each compound was tested in a concentration range.
After 24 hours, the growth medium is changed and replaced by a richer medium, DMEM (DUTSCHER) at 1 g/L glucose and 2% FBS (INNOPROT) and 1% penicillin-streptomycin (DUTSCHER). These media will have been pre-equilibrated at 37° C. in advance. The cells are then returned to culture at 37° C. under 20% 02 and 5% CO2 for 22h.
After 22 hours of reoxygenation, the potential protective effect of anidulafungin or micafungin is measured by a cell viability test using calcein AM (CORNING), which is a dye substrate. The calcein AM can easily cross the cell membrane of the viable cells. The AM ester groups mask the part of the molecule that chelates calcium. Once inside the cells, the (non-fluorescent) calcein AM is hydrolyzed to (fluorescent) calcein by endogenous esterases. The resulting calcein molecule binds to calcium inside the cell and remains trapped inside the cell. These molecules emit strong green fluorescence when subjected to […] of a particular wavelength (495 nm). Since dead cells lack esterase activity, only living cells are labelled.
This cell viability test is performed in two steps. […]

For `CCCCCOc1ccc(-c2cc(-c3ccc(C(=O)N[C@H]4C[C@@H](O)[C@@H](O)NC(=O)[C@@H]5[C@@H](O)[C@@H](C)CN5C(=O)[C@H]([C@H](O)CC(N)=O)NC(=O)[C@H]([C@H](O)[C@@H](O)c5ccc(O)c(OS(=O)(=O)O)c5)NC(=O)[C@@H]5C[C@@H](O)CN5C(=O)[C@H]([C@@H](C)O)NC4=O)cc3)no2)cc1` [Micafungin, {5-[(1S,2S)-2-[(3S,6S,9S,11R,15S,18S,20R,21R,24S,25S,26S)-3-[(1R)-2-carbamoyl-1-hydroxyethyl]-11,20,21,25-tetrahydroxy-15-[(1R)-1-hydroxyethyl]-26-methyl-2,5,8,14,17,23-hexaoxo-18-[(4-{5-[4-(pentyloxy)phenyl]-1,2-oxazol-3-yl}benzene)amido]-1,4,7,13,16,22-hexaazatricyclo[22.3.0.0]heptacosan-6-yl]-1,2-dihydroxyethyl]-2-hydroxyphenyl}oxidanesulfonic acid] (X1-[Orn(4R-OH,5R-OH)]T[Hyp][hTyr(3S-OH,4S-OH,3'-OSO3H)][Gln(3R-OH)][Pro(3S-OH,4S-Me)]; lactam 1-C), which “Globalfluo assay 1” value ([Micafungin] log μM 1.176091) is on record?
Its value is 17307060 arbitrary units.

And the “Globalfluo assay 2” value ([Micafungin] log μM 1.176091)?
The value was 19173810 arbitrary units.

What about the “Globalfluo assay 3” value ([Micafungin] log μM 1.176091) of the same compound?
Its value is 18057880 arbitrary units.

What about the Mean globalfluo ([Micafungin] log μM 1.176091) of the same compound?
The Mean globalfluo was 18179583 arbitrary units.

And the “Survival rate (%)” value ([Micafungin] log μM 1.176091)?
The value was 57%.

And the “Globalfluo assay 1” value ([Micafungin] log μM 1.30103)?
Its value is 21761030 arbitrary units.

And the “Globalfluo assay 2” value ([Micafungin] log μM 1.30103)?
Its value is 21216730 arbitrary units.

And the “Globalfluo assay 3” value ([Micafungin] log μM 1.30103)?
Its value is 18246850 arbitrary units.

What about the Mean globalfluo ([Micafungin] log μM 1.30103) of the same compound?
Its Mean globalfluo is 20408203 arbitrary units.

And the “Survival rate (%)” value ([Micafungin] log μM 1.30103)?
The value was 66%.

What about the “Globalfluo assay 1” value ([Micafungin] log μM 1.477121) of the same compound?
The value was 23916400 arbitrary units.

What about the “Globalfluo assay 2” value ([Micafungin] log μM 1.477121) of the same compound?
The value was 22885210 arbitrary units.

What about the “Globalfluo assay 3” value ([Micafungin] log μM 1.477121) of the same compound?
The value was 21104460 arbitrary units.

What about the Mean globalfluo ([Micafungin] log μM 1.477121) of the same compound?
Its Mean globalfluo is 22635357 arbitrary units.

And the “Survival rate (%)” value ([Micafungin] log μM 1.477121)?
Its value is 75%.

What about the “Globalfluo assay 1” value ([Micafungin] log μM 1.60206) of the same compound?
The value was 21279700 arbitrary units.

What about the “Globalfluo assay 2” value ([Micafungin] log μM 1.60206) of the same compound?
The value was 21255650 arbitrary units.

What about the “Globalfluo assay 3” value ([Micafungin] log μM 1.60206) of the same compound?
The value was 20543100 arbitrary units.

What about the Mean globalfluo ([Micafungin] log μM 1.60206) of the same compound?
The Mean globalfluo was 21026150 arbitrary units.

And the “Survival rate (%)” value ([Micafungin] log μM 1.60206)?
The value was 69%.

And the “Globalfluo assay 1” value ([Micafungin] log μM 1.778151)?
The value was 22384980 arbitrary units.

What about the “Globalfluo assay 2” value ([Micafungin] log μM 1.778151) of the same compound?
Its value is 24586670 arbitrary units.

And the “Globalfluo assay 3” value ([Micafungin] log μM 1.778151)?
The value was 22823930 arbitrary units.

And the Mean globalfluo ([Micafungin] log μM 1.778151)?
The Mean globalfluo was 23265193 arbitrary units.

What about the “Survival rate (%)” value ([Micafungin] log μM 1.778151) of the same compound?
Its value is 78%.

What about the “Globalfluo assay 1” value ([Micafungin] log μM 1.90309) of the same compound?
Its value is 25482590 arbitrary units.

What about the “Globalfluo assay 2” value ([Micafungin] log μM 1.90309) of the same compound?
The value was 16667370 arbitrary units.

What about the “Globalfluo assay 3” value ([Micafungin] log μM 1.90309) of the same compound?
The value was 22222960 arbitrary units.

And the Mean globalfluo ([Micafungin] log μM 1.90309)?
Its Mean globalfluo is 21457640 arbitrary units.

What about the “Survival rate (%)” value ([Micafungin] log μM 1.90309) of the same compound?
The value was 71%.

What about the “Globalfluo assay 1” value ([Micafungin] log μM 2) of the same compound?
Its value is 23318050 arbitrary units.

What about the “Globalfluo assay 2” value ([Micafungin] log μM 2) of the same compound?
The value was 20442770 arbitrary units.

What about the “Globalfluo assay 3” value ([Micafungin] log μM 2) of the same compound?
The value was 22906760 arbitrary units.

What about the Mean globalfluo ([Micafungin] log μM 2) of the same compound?
The Mean globalfluo was 22222527 arbitrary units.

What about the “Survival rate (%)” value ([Micafungin] log μM 2) of the same compound?
The value was 74%.

And the “Globalfluo assay 1” value ([Micafungin] log μM 2.176091)?
The value was 20166170 arbitrary units.

And the “Globalfluo assay 2” value ([Micafungin] log μM 2.176091)?
The value was 24333680 arbitrary units.

What about the “Globalfluo assay 3” value ([Micafungin] log μM 2.176091) of the same compound?
The value was 26066530 arbitrary units.

What about the Mean globalfluo ([Micafungin] log μM 2.176091) of the same compound?
Its Mean globalfluo is 23522127 arbitrary units.

What about the “Survival rate (%)” value ([Micafungin] log μM 2.176091) of the same compound?
The value was 79%.

What about the “Globalfluo assay 1” value ([Micafungin] log μM −0.154902) of the same compound?
The value was 3831476 arbitrary units.

And the “Globalfluo assay 2” value ([Micafungin] log μM −0.154902)?
The value was 4395798 arbitrary units.

What about the “Globalfluo assay 3” value ([Micafungin] log μM −0.154902) of the same compound?
The value was 3538568 arbitrary units.

What about the Mean globalfluo ([Micafungin] log μM −0.154902) of the same compound?
The Mean globalfluo was 3921947 arbitrary units.

What about the “Survival rate (%)” value ([Micafungin] log μM −0.154902) of the same compound?
The value was 0%.

And the “Globalfluo assay 1” value ([Micafungin] log μM −0.30103)?
Its value is 4962690 arbitrary units.

And the “Globalfluo assay 2” value ([Micafungin] log μM −0.30103)?
Its value is 4263110 arbitrary units.

And the “Globalfluo assay 3” value ([Micafungin] log μM −0.30103)?
The value was 4133198 arbitrary units.

What about the Mean globalfluo ([Micafungin] log μM −0.30103) of the same compound?
Its Mean globalfluo is 4452999 arbitrary units.

And the “Survival rate (%)” value ([Micafungin] log μM −0.30103)?
The value was 2%.

And the “Globalfluo assay 1” value ([Micafungin] log μM −0.5228788)?
The value was 4164368 arbitrary units.

What about the “Globalfluo assay 2” value ([Micafungin] log μM −0.5228788) of the same compound?
Its value is 5246152 arbitrary units.

What about the “Globalfluo assay 3” value ([Micafungin] log μM −0.5228788) of the same compound?
The value was 3621246 arbitrary units.

What about the Mean globalfluo ([Micafungin] log μM −0.5228788) of the same compound?
The Mean globalfluo was 4343922 arbitrary units.

What about the “Survival rate (%)” value ([Micafungin] log μM −0.5228788) of the same compound?
The value was 2%.

What about the “Globalfluo assay 1” value ([Micafungin] log μM −1) of the same compound?
The value was 4086038 arbitrary units.

And the “Globalfluo assay 2” value ([Micafungin] log μM −1)?
Its value is 5779074 arbitrary units.

What about the “Globalfluo assay 3” value ([Micafungin] log μM −1) of the same compound?
The value was 4555233 arbitrary units.

What about the Mean globalfluo ([Micafungin] log μM −1) of the same compound?
The Mean globalfluo was 4806782 arbitrary units.

What about the “Survival rate (%)” value ([Micafungin] log μM −1) of the same compound?
Its value is 4%.

And the “Globalfluo assay 1” value ([Micafungin] log μM −2)?
Its value is 4295861 arbitrary units.

And the “Globalfluo assay 2” value ([Micafungin] log μM −2)?
The value was 4126418 arbitrary units.

And the “Globalfluo assay 3” value ([Micafungin] log μM −2)?
The value was 4707699 arbitrary units.

What about the Mean globalfluo ([Micafungin] log μM −2) of the same compound?
Its Mean globalfluo is 4376659 arbitrary units.

What about the “Survival rate (%)” value ([Micafungin] log μM −2) of the same compound?
Its value is 2%.

And the “Globalfluo assay 1” value ([Micafungin] log μM −3)?
Its value is 4397869 arbitrary units.

And the “Globalfluo assay 2” value ([Micafungin] log μM −3)?
Its value is 4804046 arbitrary units.

And the “Globalfluo assay 3” value ([Micafungin] log μM −3)?
The value was 3922702 arbitrary units.

What about the Mean globalfluo ([Micafungin] log μM −3) of the same compound?
The Mean globalfluo was 4374872 arbitrary units.

What about the “Survival rate (%)” value ([Micafungin] log μM −3) of the same compound?
The value was 2%.
